System: colorectal tissue transcripts
Assay: SAGE of normal, adenoma and cancer colorectal tissue (transcript tag counts)
Set-up: species or system human
Outline: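 Tag counts reflect transcript abundance, each mRNA represented by a 15-base tag near its 3′ end. Excluding MHC tags, linkers and duplicate ditags, libraries were compared statistically: two each of normal epithelium, FAP-derived adenomas (>70% neoplastic) and carcinomas.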

[1] = normal colorectal tissue library 1
[2] = normal colorectal tissue library 2

| Sequence | AD1 (SAGE tag count) (adenoma library 1) | AD2 (SAGE tag count) (adenoma library 2) | CA1 (SAGE tag count) (cancer library 1) | CA2 (SAGE tag count) (cancer library 2) | NC1 (SAGE tag count) [1] | NC2 (SAGE tag count) [2] | AD1 (SAGE tag count) (SAGE library AD1) | AD2 (SAGE tag count) (SAGE library AD2) | CA1 (SAGE tag count) (SAGE library CA1) | CA2 (SAGE tag count) (SAGE library CA2) | NC1 (SAGE tag count) (SAGE library NC1) | NC2 (SAGE tag count) (SAGE library NC2) |
| --- | --- | --- | --- | --- | --- | --- | --- | --- | --- | --- | --- | --- |
| TGGCGCGTGT (chemistry not fully specified) | 0 | 0 | 9 | 5 | 25 | 8 | – | – | – | – | – | – |
| AGCCCGACCA (chemistry not fully specified) | – | – | – | – | – | – | 2 | 4 | 1 | 3 | 16 | 8 |
| CATAGGTTTA (chemistry not fully specified) | – | – | – | – | – | – | 4 | 1 | 5 | 0 | 66 | 39 |
| CCTGGAAGAG (chemistry not fully specified) | – | – | – | – | – | – | 11 | 4 | 12 | 16 | 30 | 26 |
| GCCTGGCCAT (chemistry not fully specified) | – | – | – | – | – | – | 4 | 6 | 10 | 14 | 26 | 34 |
| CTAGCCTCAC (chemistry not fully specified) | – | – | – | – | – | – | 30 | 53 | 36 | 58 | 172 | 90 |
| GTGCCTGAGA (chemistry not fully specified) | – | – | – | – | – | – | 2 | 6 | 7 | 3 | 18 | 15 |
| TCACAGTGCC (chemistry not fully specified) | 3 | 1 | 3 | 4 | 26 | 7 | – | – | – | – | – | – |
| GATGAATCCG (chemistry not fully specified) | – | – | – | – | – | – | 2 | 2 | 1 | 2 | 12 | 14 |
| ATATAATCTG (chemistry not fully specified) | – | – | – | – | – | – | 1 | 4 | 5 | 5 | 18 | 14 |
| GGCTGGGCCT (chemistry not fully specified) | – | – | – | – | – | – | 14 | 5 | 10 | 8 | 46 | 25 |
| CTTGATTCCC (chemistry not fully specified) | – | – | – | – | – | – | 5 | 0 | 2 | 5 | 26 | 9 |
| ACGGTCCAGG (chemistry not fully specified) | – | – | – | – | – | – | 0 | 0 | 0 | 1 | 5 | 12 |
| GGGCGCTGTG (chemistry not fully specified) | – | – | – | – | – | – | 3 | 6 | 4 | 5 | 11 | 27 |
| GCGAAACTCG (chemistry not fully specified) | – | – | – | – | – | – | 1 | 0 | 0 | 0 | 5 | 9 |
| CTTGACATAC (chemistry not fully specified) | – | – | – | – | – | – | 4 | 4 | 0 | 0 | 18 | 20 |
| GCGAAACCCT (chemistry not fully specified) | – | – | – | – | – | – | 123 | 43 | 64 | 98 | 167 | 565 |
| GCAAGAAAGT (chemistry not fully specified) | – | – | – | – | – | – | 0 | 4 | 0 | 1 | 48 | 0 |
| TAATTTGCAT (chemistry not fully specified) | 1 | 1 | 2 | 0 | 25 | 2 | – | – | – | – | – | – |
| ACTGTGGCGG (chemistry not fully specified) | – | – | – | – | – | – | 9 | 12 | 9 | 4 | 17 | 34 |
| GTGGTGGCAG (chemistry not fully specified; the letters are possibly those of the target site) | – | – | – | – | – | – | 1 | 1 | 10 | 3 | 29 | 11 |
| AAGAAGCAGG (chemistry not fully specified; the letters are possibly those of the target site) | – | – | – | – | – | – | 3 | 4 | 1 | 3 | 8 | 16 |
| ATGCGGGAGA (chemistry not fully specified) | – | – | – | – | – | – | 15 | 22 | 5 | 6 | 38 | 39 |
| CCGGCTTGAG (chemistry not fully specified) | – | – | – | – | – | – | 0 | 0 | 0 | 0 | 7 | 4 |
| TCTGAATTAT (chemistry not fully specified) | 0 | 0 | 1 | 0 | 24 | 16 | – | – | – | – | – | – |
| GCCCACACAG (chemistry not fully specified) | – | – | – | – | – | – | 1 | 1 | 0 | 0 | 15 | 0 |
| CCAAAGCTAT (chemistry not fully specified) | – | – | – | – | – | – | 14 | 12 | 6 | 11 | 42 | 16 |
| TTTGGTTTCA (chemistry not fully specified) | 0 | 0 | 0 | 0 | 2 | 13 | – | – | – | – | – | – |

Reference: patent publication US8029764B2, “Methods for detection of colorectal cancer” (The Johns Hopkins University, priority 2001, dated 2011)
